This note sets out measurements from PubChem BioAssay AID330 (DTP/NCI, 2004).

Where “and” joins values, the source holds several entries; their conditions need not be identical. Identical values can stand only once. Toxic doses and inconclusive results are not listed.

For the assay, the system named is P388 leukemia ip, CD2F1 mice, survival T/C. Description: NCI In Vivo Anticancer Drug Screen. Data for tumor model P388 Leukemia (intraperitoneal) in CD2F1 (CDF1) mice. Particulars: endpoint: median survival time, higher = longer survival. The method in brief:
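Mice carrying the transplanted tumor received test compound or vehicle. Survival was recorded in each group, and the value is the treated-group measurement divided by that of the vehicle-treated control group.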

[1] abbreviates: dose: 120.0 mg/kg/injection, schedule: Q01DX005 (ip), vehicle: saline with Tween-80.
Setting [2] is: dose: 50.0 mg/kg/injection, schedule: Q01DX005 (ip), vehicle: Klucel (hydroxypropylcellulose) (HPC).
[3] abbreviates: dose: 100.0 mg/kg/injection, schedule: Q01DX005 (ip), vehicle: Klucel (hydroxypropylcellulose) (HPC).
Setting [4] is: dose: 50.0 mg/kg/injection, schedule: Q01DX009 (ip), vehicle: saline with Tween-80.
[5] abbreviates: dose: 100.0 mg/kg/injection, schedule: Q01DX009 (ip), vehicle: saline with Tween-80.
Setting [6] is: dose: 200.0 mg/kg/injection, schedule: Q01DX009 (ip), vehicle: saline with Tween-80.

As to `COC(=O)C1C(=O)CC2N(C)C1C(C)(C)C2(C)C` (configuration not stated), the T/C under setting [1] is 150 % of control.

For `OCC1OC(C2N(c3ccccc3)CCN2c2ccccc2)C(O)C1O` (configuration not stated), the T/C runs as follows: (dose: 12.5 mg/kg/injection, schedule: Q01DX009 (ip), vehicle: distilled water + Tween-80) 102 % of control; (dose: 25.0 mg/kg/injection, schedule: Q01DX009 (ip), vehicle: distilled water + Tween-80) 100 % of control; (dose: 50.0 mg/kg/injection, schedule: Q01DX009 (ip), vehicle: distilled water + Tween-80) 98 % of control; (dose: 100.0 mg/kg/injection, schedule: Q01DX009 (ip), vehicle: distilled water + Tween-80) 90 % of control; (dose: 200.0 mg/kg/injection, schedule: Q01DX009 (ip), vehicle: distilled water + Tween-80) 93 % of control.

`CNc1c([N+](=O)[O-])cc2[nH]c(C)nc2c1[N+](=O)[O-]`: the T/C by setting is: (dose: 6.25 mg/kg/injection, schedule: Q04DX003 (ip), vehicle: saline with Tween-80) 103 % of control; (dose: 12.5 mg/kg/injection, schedule: Q04DX003 (ip), vehicle: saline with Tween-80) 113 % of control; (dose: 25.0 mg/kg/injection, schedule: Q04DX003 (ip), vehicle: saline with Tween-80) 99 % of control and 92 % of control.

Turning to `CCCNC(=S)NN1C2CSC1CS2`, the T/C by setting is: (dose: 50.0 mg/kg/injection, schedule: Q01DX009 (ip), vehicle: saline) 89 % of control; (dose: 100.0 mg/kg/injection, schedule: Q01DX009 (ip), vehicle: saline) 99 % of control.

For the molecule `CCCCNC(=O)C1C2C=CC(O2)C1C(=O)O` (configuration not stated), the T/C under setting [2] is 100 % of control; the T/C under setting [3] was 93 % of control; the T/C (dose: 200.0 mg/kg/injection, schedule: Q01DX005 (ip), vehicle: Klucel (hydroxypropylcellulose) (HPC)) is 89 % of control.

Take `CC([NH-])CC(C)[NH-].[Br][Pt+2][Br]` (configuration not stated): the T/C reads like this: (dose: 6.25 mg/kg/injection, schedule: Q04DX002 (ip), vehicle: saline with Tween-80) 154 % of control and 171 % of control and 159 % of control; (dose: 12.5 mg/kg/injection, schedule: Q04DX002 (ip), vehicle: saline with Tween-80) 188 % of control and 183 % of control and 186 % of control.

For `CN(C)c1ccc(Cc2ccc(N(C)C)c(C(O)(c3ccccc3)c3ccccc3)c2)cc1C(O)(c1ccccc1)c1ccccc1`, the T/C reads like this: (dose: 1.56 mg/kg/injection, schedule: Q01DX005 (ip), vehicle: saline) 100 % of control; (dose: 3.13 mg/kg/injection, schedule: Q01DX005 (ip), vehicle: saline) 97 % of control; (dose: 6.25 mg/kg/injection, schedule: Q01DX005 (ip), vehicle: saline) 90 % of control.

Take `[Mn]=[Se]`: the T/C is 101 % of control (dose: 7.5 mg/kg/injection, schedule: Q01DX005 (ip), vehicle: other); 100 % of control and 103 % of control (dose: 15.0 mg/kg/injection, schedule: Q01DX005 (ip), vehicle: other); 103 % of control and 94 % of control (dose: 30.0 mg/kg/injection, schedule: Q01DX005 (ip), vehicle: other); 110 % of control (dose: 60.0 mg/kg/injection, schedule: Q01DX005 (ip), vehicle: acid diluted with saline); 100 % of control (dose: 60.0 mg/kg/injection, schedule: Q01DX005 (ip), vehicle: other).

Turning to `NNC(=O)C(NC(=O)c1ccccc1)C(N)=O` (configuration not stated), the T/C reads like this: (dose: 100.0 mg/kg/injection, schedule: Q04DX003 (ip), vehicle: saline) 95 % of control; (dose: 200.0 mg/kg/injection, schedule: Q04DX003 (ip), vehicle: saline) 95 % of control; (dose: 400.0 mg/kg/injection, schedule: Q04DX003 (ip), vehicle: saline) 94 % of control.

As to `CCCCCCC1(/C=C/c2ccc(Cl)c(Cl)c2)OCC(C)(C)CO1`, the T/C by setting is: under setting [4], 100 % of control; under setting [5], 89 % of control; under setting [6], 90 % of control.

In the case of `COC1(c2ccccc2)N=C(N)NC1(OC)c1ccccc1` (configuration not stated), the T/C is 103 % of control (dose: 6.25 mg/kg/injection, schedule: Q04DX002 (ip), vehicle: saline); 102 % of control (dose: 12.5 mg/kg/injection, schedule: Q04DX002 (ip), vehicle: saline); 98 % of control (dose: 25.0 mg/kg/injection, schedule: Q04DX002 (ip), vehicle: saline).

Regarding `COC1(OC)OC(c2ccccc2)=C(C#N)C(c2ccc(Cl)cc2)C1(OC)OC` (configuration not stated), the T/C runs as follows: (dose: 60.0 mg/kg/injection, schedule: Q01DX005 (ip), vehicle: Klucel (hydroxypropylcellulose) (HPC)) 96 % of control; (dose: 120.0 mg/kg/injection, schedule: Q01DX005 (ip), vehicle: Klucel (hydroxypropylcellulose) (HPC)) 94 % of control; (dose: 240.0 mg/kg/injection, schedule: Q01DX005 (ip), vehicle: Klucel (hydroxypropylcellulose) (HPC)) 88 % of control.

As for `O=C(CCl)NCC1OC(n2cnc3c(=O)[nH]cnc32)C(O)C1O` (configuration not stated), the T/C is, setting by setting: (dose: 50.0 mg/kg/injection, schedule: Q01DX005 (ip), vehicle: saline) 98 % of control; (dose: 100.0 mg/kg/injection, schedule: Q01DX005 (ip), vehicle: saline) 96 % of control; (dose: 200.0 mg/kg/injection, schedule: Q01DX005 (ip), vehicle: saline) 100 % of control.

With `O=C1CSCC(=O)OCCOCCSCCOCCO1`, the T/C was 92 % of control (dose: 100.0 mg/kg/injection, schedule: Q04DX003 (ip), vehicle: suspension in saline); 99 % of control (dose: 200.0 mg/kg/injection, schedule: Q04DX003 (ip), vehicle: suspension in saline); 101 % of control (dose: 400.0 mg/kg/injection, schedule: Q04DX003 (ip), vehicle: suspension in saline).

As for `CCC(=O)Nc1c(O)c(Br)c(NC(=O)CC)c(O)c1Br`, the T/C was 104 % of control (dose: 60.0 mg/kg/injection, schedule: Q01DX005 (ip), vehicle: saline); 100 % of control (dose: 120.0 mg/kg/injection, schedule: Q01DX005 (ip), vehicle: saline); 105 % of control (dose: 240.0 mg/kg/injection, schedule: Q01DX005 (ip), vehicle: saline).

Regarding `COC1(OC)C2(Cl)C(Cl)=C(Cl)C1(Cl)C1CCCCC12` (configuration not stated), the T/C by setting is: (dose: 60.0 mg/kg/injection, schedule: Q01DX005 (ip), vehicle: saline with Tween-80) 101 % of control; under setting [1], 102 % of control; (dose: 240.0 mg/kg/injection, schedule: Q01DX005 (ip), vehicle: saline with Tween-80) 104 % of control.

On to `NC(=O)CC1(O)c2ccccc2C(=O)c2ccccc21`, for which the T/C by setting is: (dose: 3.13 mg/kg/injection, schedule: Q01DX009 (ip), vehicle: clinical formulation) 97 % of control; (dose: 6.25 mg/kg/injection, schedule: Q01DX009 (ip), vehicle: clinical formulation) 104 % of control; (dose: 12.5 mg/kg/injection, schedule: Q01DX009 (ip), vehicle: clinical formulation) 97 % of control; (dose: 25.0 mg/kg/injection, schedule: Q01DX009 (ip), vehicle: clinical formulation) 94 % of control; (dose: 50.0 mg/kg/injection, schedule: Q01DX009 (ip), vehicle: clinical formulation) 97 % of control; (dose: 100.0 mg/kg/injection, schedule: Q01DX009 (ip), vehicle: clinical formulation) 100 % of control.

As to `CC1(O)Cc2c(O)c3c(c(O)c2CC1O)C(=O)C=CC3=O` (configuration not stated), the T/C reads like this: (dose: 3.13 mg/kg/injection, schedule: Q04DX003 (ip), vehicle: distilled water + Tween-80) 100 % of control; (dose: 6.25 mg/kg/injection, schedule: Q04DX003 (ip), vehicle: distilled water + Tween-80) 100 % of control; (dose: 12.5 mg/kg/injection, schedule: Q04DX003 (ip), vehicle: distilled water + Tween-80) 97 % of control; (dose: 25.0 mg/kg/injection, schedule: Q04DX003 (ip), vehicle: distilled water + Tween-80) 100 % of control and 96 % of control.

For `NC(=O)C#CC(N)=O`, the T/C is, setting by setting: (dose: 0.11 mg/kg/injection, schedule: Q01DX009 (ip), vehicle: Klucel (hydroxypropylcellulose) (HPC)) 100 % of control and 103 % of control; (dose: 0.22 mg/kg/injection, schedule: Q01DX009 (ip), vehicle: Klucel (hydroxypropylcellulose) (HPC)) 100 % of control and 119 % of control; (dose: 0.45 mg/kg/injection, schedule: Q01DX009 (ip), vehicle: Klucel (hydroxypropylcellulose) (HPC)) 103 % of control and 119 % of control; (dose: 0.9 mg/kg/injection, schedule: Q01DX009 (ip), vehicle: Klucel (hydroxypropylcellulose) (HPC)) 100 % of control and 114 % of control.

Consider `COC1=CC(=O)C2CC=CC(CC(=O)O)C2(C)C1=O` (configuration not stated), for which the T/C is, setting by setting: under setting [2], 108 % of control; under setting [3], 103 % of control.

Take `CC1=NN(C(=O)c2cccnc2)C(=O)C1N=Nc1ccc(S(=O)(=O)Nc2nc(C)cc(C)n2)cc1` (configuration not stated): the T/C under setting [4] is 101 % of control, the T/C under setting [5] was 99 % of control and the T/C under setting [6] was 99 % of control.
